Data as given in ChEMBL document CHEMBL1144093, “Neocrotocembranal from Croton oblongifolius” (1999).
Activity calls are given as the source filed them. The calls are words filed in the database; no cut-off is given here.

Columns and labels:
[1] = test system: P388; experiment: Cytotoxicity against mouse P388 cells by MTT colorimetric method; type: functional
[2] = test system: Platelet; experiment: Inhibition of thrombin-induced rabbit washed platelets aggregation by turbidimetric method; type: functional, Oryctolagus cuniculus

C/C1=C\CC/C(C)=C/C=C(/C(C)C)CC/C(C(=O)O)=C/CC1
Activity [1]: inactive

C/C1=C\C=C(\C(C)C)CC/C(C(=O)O)=C\CC/C(C)=C/CC1 [NEOCROTOCEMBRANEIC ACID]
Activity [1]: 41.47 µg/mL

C/C1=C\C=C(\C(C)C)CC/C(C=O)=C\CC/C(C)=C/CC1 [NEOCROTOCEMBRANAL]
Activity [2]: 47.21 µg/mL
Activity [1]: 6.48 µg/mL
